Measurements: patent publication US20250114486A1, “MARKED FATTY ACID DERIVATIVE, PRECURSOR COMPOUND THEREOF, AND USE THEREOF IN CONTRAST AGENT” (BEIJING NORMAL UNIVERSITY, priority 2022, published 2025)
One block for each compound: values may come before it.

Assay: In vivo biodistribution in female Kunming mice
Settings: for Biodistribution: Large Intestine / Biodistribution: Small Intestine / Biodistribution: Stomach: unit % ID; for absolute myocardial uptake (assessment): after tail vein injection
Description: Female Kunming mice (20-22 g, n=3) were fasted for 12 h before the experiment, and the purified radioactive ^99mTc complex 130 was dissolved in a normal saline (containing 10% ethanol) solution (about 100 μCi/mL). Female Kunming mice were injected with 100 μL of the above solution through the tail vein, and the mice were killed by cervical dislocation at 5, 15, 30, 60, and 120 min post-injection, respectively. Blood, brain, heart, liver, spleen, lung, kidney, muscle, bone, large intestine, small intestine, stomach and tail were collected, weighed and counted, and the count distribution of each tissue and organ was calculated (unit: % ID/g, the unit of large intestine, small intestine and stomach was % ID), and the data were the mean±standard deviation of three mice in each time phase. At the same time, 100 μL of the above solution was diluted to 10 mL, which was used as the % ID without deducting the tail count.
The corresponding radioactive ^99mTc complex 158 as the typical compounds of the general formula V in this application was selected to conduct an in vivo biodistribution study in female Kunming mice. The specific experimental method was shown in the experimental method of “In vivo biodistribution study of radioactive ^99mTc complex 130 in female Kunming mice” in Example 7 above.

heart-to-blood ratios (assessment): moderate level
heart-to-lungs ratios (assessment): moderate level
myocardial clearance: fast
Biodistribution: Blood (5 min post-injection): 13.21 ± 2.84 ID %/g
Biodistribution: Bone (5 min post-injection): 2.31 ± 0.36 ID %/g
Biodistribution: Brain (5 min post-injection): 0.39 ± 0.14 ID %/g
Biodistribution: Heart (5 min post-injection): 4.19 ± 0.10 ID %/g
Biodistribution: Kidney (5 min post-injection): 7.80 ± 1.46 ID %/g
Biodistribution: Liver (5 min post-injection): 37.80 ± 6.80 ID %/g
Biodistribution: Lungs (5 min post-injection): 5.91 ± 0.89 ID %/g
Biodistribution: Muscle (5 min post-injection): 1.82 ± 0.16 ID %/g
Biodistribution: Spleen (5 min post-injection): 1.55 ± 0.01 ID %/g
Heart-to-Blood ratio (5 min post-injection): 0.32
Heart-to-Liver ratio (5 min post-injection): 0.11
Heart-to-Lungs ratio (5 min post-injection): 0.71
Biodistribution: Large Intestine (5 min post-injection): 1.04 ± 0.37 % ID
Biodistribution: Small Intestine (5 min post-injection): 5.39 ± 0.84 % ID
Biodistribution: Stomach (5 min post-injection): 0.54 ± 0.19 % ID
Biodistribution: Blood (15 min post-injection): 5.47 ± 0.09 ID %/g
Biodistribution: Bone (15 min post-injection): 1.04 ± 0.38 ID %/g
Biodistribution: Brain (15 min post-injection): 0.14 ± 0.05 ID %/g
Biodistribution: Heart (15 min post-injection): 1.63 ± 0.02 ID %/g
Biodistribution: Kidney (15 min post-injection): 4.59 ± 0.68 ID %/g
Biodistribution: Liver (15 min post-injection): 33.35 ± 0.37 ID %/g
Biodistribution: Lungs (15 min post-injection): 2.69 ± 0.70 ID %/g
Biodistribution: Muscle (15 min post-injection): 1.10 ± 0.22 ID %/g
Biodistribution: Spleen (15 min post-injection): 0.86 ± 0.28 ID %/g
Heart-to-Blood ratio (15 min post-injection): 0.30
Heart-to-Liver ratio (15 min post-injection): 0.05
Heart-to-Lungs ratio (15 min post-injection): 0.61
Biodistribution: Large Intestine (15 min post-injection): 0.67 ± 0.15 % ID
Biodistribution: Small Intestine (15 min post-injection): 16.67 ± 2.60 % ID
Biodistribution: Stomach (15 min post-injection): 0.46 ± 0.13 % ID
Biodistribution: Blood (30 min post-injection): 1.20 ± 0.1 ID %/g
Biodistribution: Bone (30 min post-injection): 0.37 ± 0.1 ID %/g
Biodistribution: Brain (30 min post-injection): 0.1 ± 0.04 ID %/g
Biodistribution: Heart (30 min post-injection): 0.91 ± 0.11 ID %/g
Biodistribution: Kidney (30 min post-injection): 2.22 ± 0.2 ID %/g
Biodistribution: Liver (30 min post-injection): 22.5 ± 3.2 ID %/g
Biodistribution: Lungs (30 min post-injection): 0.9 ± 0.04 ID %/g
Biodistribution: Muscle (30 min post-injection): 0.46 ± 0.1 ID %/g
Biodistribution: Spleen (30 min post-injection): 0.55 ± 0.1 ID %/g
Heart-to-Blood ratio (30 min post-injection): 0.76
Heart-to-Liver ratio (30 min post-injection): 0.04
Heart-to-Lungs ratio (30 min post-injection): 1.00
Biodistribution: Large Intestine (30 min post-injection): 1.25 ± 0.1 % ID
Biodistribution: Small Intestine (30 min post-injection): 20.9 ± 4.6 % ID
Biodistribution: Stomach (30 min post-injection): 0.25 ± 0.1 % ID
Biodistribution: Blood (60 min post-injection): 0.42 ± 0.03 ID %/g
Biodistribution: Bone (60 min post-injection): 0.24 ± 0.04 ID %/g
Biodistribution: Brain (60 min post-injection): 0.06 ± 0.01 ID %/g
Biodistribution: Heart (60 min post-injection): 0.67 ± 0.09 ID %/g
Biodistribution: Kidney (60 min post-injection): 1.20 ± 0.10 ID %/g
Biodistribution: Liver (60 min post-injection): 22.8 ± 1.20 ID %/g
Biodistribution: Lungs (60 min post-injection): 0.50 ± 0.02 ID %/g
Biodistribution: Muscle (60 min post-injection): 0.31 ± 0.06 ID %/g
Biodistribution: Spleen (60 min post-injection): 0.24 ± 0.06 ID %/g
Heart-to-Blood ratio (60 min post-injection): 1.60
Heart-to-Liver ratio (60 min post-injection): 0.03
Heart-to-Lungs ratio (60 min post-injection): 1.34
Biodistribution: Large Intestine (60 min post-injection): 1.31 ± 0.27 % ID
Biodistribution: Small Intestine (60 min post-injection): 34.24 ± 3.12 % ID
Biodistribution: Stomach (60 min post-injection): 0.38 ± 0.05 % ID
Biodistribution: Blood (120 min post-injection): 0.26 ± 0.01 ID %/g
Biodistribution: Bone (120 min post-injection): 0.15 ± 0.05 ID %/g
Biodistribution: Brain (120 min post-injection): 0.03 ± 0.02 ID %/g
Biodistribution: Heart (120 min post-injection): 0.52 ± 0.01 ID %/g
Biodistribution: Kidney (120 min post-injection): 0.80 ± 0.07 ID %/g
Biodistribution: Liver (120 min post-injection): 13.81 ± 0.59 ID %/g
Biodistribution: Lungs (120 min post-injection): 0.32 ± 0.06 ID %/g
Biodistribution: Muscle (120 min post-injection): 0.21 ± 0.03 ID %/g
Biodistribution: Spleen (120 min post-injection): 0.15 ± 0.07 ID %/g
Heart-to-Blood ratio (120 min post-injection): 2.00
Heart-to-Liver ratio (120 min post-injection): 0.04
Heart-to-Lungs ratio (120 min post-injection): 1.63
Biodistribution: Large Intestine (120 min post-injection): 1.02 ± 0.22 % ID
Biodistribution: Small Intestine (120 min post-injection): 19.83 ± 1.14 % ID
Biodistribution: Stomach (120 min post-injection): 0.47 ± 0.10 % ID
absolute myocardial uptake (assessment): low
SMILES: COC(C)(C)C[N+]#[C][99Tc-5]([C]#[N+]CC(C)(C)OC)([C]#[N+]CC(C)(C)OC)([C]#[N+]CC(C)(C)OC)([C]#[N+]CC(C)(C)OC)[C]#[N+]CC(C)(C)OCCCS(=O)(=O)CCCCCS(=O)(=O)CCCSCCCCC(=O)O [^99mTc complex 158]

Biodistribution: Blood (5 min post-injection): 0.54 ± 0.07 ID %/g
Biodistribution: Bone (5 min post-injection): 0.54 ± 0.10 ID %/g
Biodistribution: Brain (5 min post-injection): 0.04 ± 0.00 ID %/g
Biodistribution: Heart (5 min post-injection): 2.14 ± 0.25 ID %/g
Biodistribution: Kidney (5 min post-injection): 9.64 ± 0.08 ID %/g
Biodistribution: Liver (5 min post-injection): 53.13 ± 4.86 ID %/g
Biodistribution: Lungs (5 min post-injection): 0.84 ± 0.09 ID %/g
Biodistribution: Muscle (5 min post-injection): 0.75 ± 0.06 ID %/g
Biodistribution: Spleen (5 min post-injection): 0.67 ± 0.04 ID %/g
Heart-to-Blood ratio (5 min post-injection): 3.96
Heart-to-Liver ratio (5 min post-injection): 0.04
Heart-to-Lungs ratio (5 min post-injection): 2.55
Heart-to-Muscle ratio (5 min post-injection): 2.85
Biodistribution: Large Intestine (5 min post-injection): 0.53 ± 0.10 % ID
Biodistribution: Small Intestine (5 min post-injection): 4.32 ± 0.25 % ID
Biodistribution: Stomach (5 min post-injection): 0.17 ± 0.02 % ID
Biodistribution: Blood (15 min post-injection): 0.24 ± 0.01 ID %/g
Biodistribution: Bone (15 min post-injection): 0.76 ± 0.13 ID %/g
Biodistribution: Brain (15 min post-injection): 0.03 ± 0.01 ID %/g
Biodistribution: Heart (15 min post-injection): 1.92 ± 0.18 ID %/g
Biodistribution: Kidney (15 min post-injection): 7.89 ± 0.19 ID %/g
Biodistribution: Liver (15 min post-injection): 42.04 ± 2.91 ID %/g
Biodistribution: Lungs (15 min post-injection): 0.76 ± 0.03 ID %/g
Biodistribution: Muscle (15 min post-injection): 0.67 ± 0.07 ID %/g
Biodistribution: Spleen (15 min post-injection): 0.50 ± 0.03 ID %/g
Heart-to-Blood ratio (15 min post-injection): 8.00
Heart-to-Liver ratio (15 min post-injection): 0.05
Heart-to-Lungs ratio (15 min post-injection): 2.53
Heart-to-Muscle ratio (15 min post-injection): 2.87
Biodistribution: Large Intestine (15 min post-injection): 0.82 ± 0.34 % ID
Biodistribution: Small Intestine (15 min post-injection): 20.74 ± 0.83 % ID
Biodistribution: Stomach (15 min post-injection): 0.26 ± 0.01 % ID
Biodistribution: Blood (30 min post-injection): 0.12 ± 0.04 ID %/g
Biodistribution: Bone (30 min post-injection): 0.33 ± 0.12 ID %/g
Biodistribution: Brain (30 min post-injection): 0.02 ± 0.01 ID %/g
Biodistribution: Heart (30 min post-injection): 1.54 ± 0.38 ID %/g
Biodistribution: Kidney (30 min post-injection): 2.51 ± 0.58 ID %/g
Biodistribution: Liver (30 min post-injection): 18.08 ± 0.30 ID %/g
Biodistribution: Lungs (30 min post-injection): 0.28 ± 0.05 ID %/g
Biodistribution: Muscle (30 min post-injection): 0.59 ± 0.16 ID %/g
Biodistribution: Spleen (30 min post-injection): 0.31 ± 0.05 ID %/g
Heart-to-Blood ratio (30 min post-injection): 12.83
Heart-to-Liver ratio (30 min post-injection): 0.09
Heart-to-Lungs ratio (30 min post-injection): 5.50
Heart-to-Muscle ratio (30 min post-injection): 2.61
Biodistribution: Large Intestine (30 min post-injection): 1.56 ± 0.16 % ID
Biodistribution: Small Intestine (30 min post-injection): 29.63 ± 3.26 % ID
Biodistribution: Stomach (30 min post-injection): 0.12 ± 0.04 % ID
Biodistribution: Blood (60 min post-injection): 0.08 ± 0.01 ID %/g
Biodistribution: Bone (60 min post-injection): 0.15 ± 0.03 ID %/g
Biodistribution: Brain (60 min post-injection): 0.02 ± 0.00 ID %/g
Biodistribution: Heart (60 min post-injection): 1.37 ± 0.26 ID %/g
Biodistribution: Kidney (60 min post-injection): 1.20 ± 0.10 ID %/g
Biodistribution: Liver (60 min post-injection): 15.12 ± 1.7 ID %/g
Biodistribution: Lungs (60 min post-injection): 0.19 ± 0.01 ID %/g
Biodistribution: Muscle (60 min post-injection): 0.43 ± 0.09 ID %/g
Biodistribution: Spleen (60 min post-injection): 0.14 ± 0.03 ID %/g
Heart-to-Blood ratio (60 min post-injection): 17.13
Heart-to-Liver ratio (60 min post-injection): 0.09
Heart-to-Lungs ratio (60 min post-injection): 7.21
Heart-to-Muscle ratio (60 min post-injection): 3.19
Biodistribution: Large Intestine (60 min post-injection): 16.13 ± 5.3 % ID
Biodistribution: Small Intestine (60 min post-injection): 26.18 ± 3.9 % ID
Biodistribution: Stomach (60 min post-injection): 0.29 ± 0.05 % ID
Biodistribution: Blood (120 min post-injection): 0.04 ± 0.01 ID %/g
Biodistribution: Bone (120 min post-injection): 0.09 ± 0.01 ID %/g
Biodistribution: Brain (120 min post-injection): 0.02 ± 0.01 ID %/g
Biodistribution: Heart (120 min post-injection): 1.27 ± 0.03 ID %/g
Biodistribution: Kidney (120 min post-injection): 0.30 ± 0.04 ID %/g
Biodistribution: Liver (120 min post-injection): 3.74 ± 0.98 ID %/g
Biodistribution: Lungs (120 min post-injection): 0.19 ± 0.05 ID %/g
Biodistribution: Muscle (120 min post-injection): 0.38 ± 0.10 ID %/g
Biodistribution: Spleen (120 min post-injection): 0.13 ± 0.02 ID %/g
Heart-to-Blood ratio (120 min post-injection): 31.75
Heart-to-Liver ratio (120 min post-injection): 0.34
Heart-to-Lungs ratio (120 min post-injection): 6.68
Heart-to-Muscle ratio (120 min post-injection): 3.34
Biodistribution: Large Intestine (120 min post-injection): 34.11 ± 4.52 % ID
Biodistribution: Small Intestine (120 min post-injection): 7.50 ± 2.45 % ID
Biodistribution: Stomach (120 min post-injection): 0.17 ± 0.12 % ID
absolute myocardial uptake (assessment): relatively low
SMILES: COC(C)(C)C[N+]#[C][99Tc-5]([C]#[N+]CC(C)(C)OC)([C]#[N+]CC(C)(C)OC)([C]#[N+]CC(C)(C)OC)([C]#[N+]CC(C)(C)OC)[C]#[N+]CC(C)(C)OCCCS(=O)(=O)CCCCCSCCCCC(=O)O [^99mTc complex 130]
